This assay has as its system FLU A (PR/8/34). Nature of the assay: Flu A Neuraminidase Antiviral Assay. The assay is classed as cell-based.

Like-named read-outs stand apart in the source and are kept apart here. Some results are limits rather than exact numbers.

For `CCN1C(=O)c2c(O)c(=O)ccn2N2C1CCCC2(C)c1ccccc1` (single isomer, unassigned) [Compound 36B, 5-ethyl-7-hydroxy-1-methyl-1-phenyl-1,2,3,4,4a,5-hexahydrodipyrido[1,2-b:2′,1′-f][1,2,4]triazine-6,8-dione], a half-maximal response (EC50) required 1290 nM.
The same measure, in the same setting: the figure for `CCN1C(=O)c2c(O)c(=O)ccn2N2C(c3ccccc3C)C(CC(F)(F)F)CCC12` (single isomer, unassigned) [Compound 93A, 5-ethyl-7-hydroxy-1-(o-tolyl)-2-(2,2,2-trifluoroethyl)-1,2,3,4,4a,5-hexahydrodipyrido[1,2-b:2′,1′-f][1,2,4]triazine-6,8-dione] is 475 nM.
Same read-out and setting: the figure for `CN1C(=O)c2c(O)c(=O)ccn2N2C(c3ccccc3)C(CC(F)F)CCC12` (single isomer, unassigned) [Compound 129C, 2-(2,2-difluoroethyl)-7-hydroxy-5-methyl-1-phenyl-1,2,3,4,4a,5-hexahydrodipyrido[1,2-b:2′,1′-f][1,2,4]triazine-6,8-dione] is 6.6 nM; for `CN1C(=O)c2c(O)c(=O)ccn2N2C(c3ccccc3C3CC3)C(CC(F)(F)F)CCC12` (single isomer, unassigned) [Compound 107B, 1-(2-cyclopropylphenyl)-7-hydroxy-5-methyl-2-(2,2,2-trifluoroethyl)-1,2,3,4,4a,5-hexahydrodipyrido[1,2-b:2′,1′-f][1,2,4]triazine-6,8-dione] it is 14.4 nM.
With `CN1C(=O)c2c(O)c(=O)ccn2N2[C@H](c3ccccc3)[C@@H](n3cc(CO)nn3)CC[C@@H]12` [Compound 141, (1R,2S,4aS)-7-hydroxy-2-(4-(hydroxymethyl)-1H-1,2,3-triazol-1-yl)-5-methyl-1-phenyl-1,2,3,4,4a,5-hexahydrodipyrido[1,2-b:2′,1′-f][1,2,4]triazine-6,8-dione], the EC50 (MDCK, 48 h) is > 8100 nM.
As for `CN1C(=O)c2c(O)c(=O)ccn2N2C1CCCC2(C)c1ccccn1` (single isomer, unassigned) [Compound 30B, 7-hydroxy-1,5-dimethyl-1-(pyridin-2-yl)-1,2,3,4,4a,5-hexahydrodipyrido[1,2-b:2′,1′-f][1,2,4]triazine-6,8-dione], a half-maximal response (EC50) required 5300 nM.
`Cc1ccccc1C1C(CC(F)(C(F)(F)F)C(F)(F)F)CCC2N(C)C(=O)c3c(O)c(=O)ccn3N12` (single isomer, unassigned) [Compound 81B, 7-hydroxy-5-methyl-2-(2,3,3,3-tetrafluoro-2-(trifluoromethyl)propyl)-1-(o-tolyl)-1,2,3,4,4a,5-hexahydrodipyrido[1,2-b:2′,1′-f][1,2,4]triazine-6,8-dione] returned an EC50 of 744 nM.
As for `CN1C(=O)c2c(O)c(=O)ccn2N2C(c3ccccc3)CCCCC12` (single isomer, unassigned) [Compound 57B, 4-hydroxy-6-methyl-11-phenyl-6a,7,8,9,10,11-hexahydro-3H-pyrido[1′,2′:1,6][1,2,4]triazino[2,3-a]azepine-3,5(6H)-dione], the EC50 is > 8100 nM.
In the case of `CN1C(=O)c2c(O)c(=O)ccn2N2C(c3ccccc3)C(CCC(F)(F)F)CCC12C` (single isomer, unassigned) [Compound 78A, 7-hydroxy-4a,5-dimethyl-1-phenyl-2-(3,3,3-trifluoropropyl)-1,2,3,4,4a,5-hexahydrodipyrido[1,2-b:2′,1′-f][1,2,4]triazine-6,8-dione], the EC50 is > 810 nM.
For the compound `C=CCC1CCC2N(C)C(=O)c3c(O)c(=O)ccn3N2C1c1ccccc1Cl` (stereo not drawn) [Compound 64C, 2-allyl-1-(2-chlorophenyl)-7-hydroxy-5-methyl-1,2,3,4,4a,5-hexahydrodipyrido[1,2-b:2′,1′-f][1,2,4]triazine-6,8-dione], the EC50 was 674 nM.
The same measure, in the same setting: the value for `Cc1c(F)cccc1C1C(CC(F)(F)F)CCC2N(C)C(=O)c3c(O)c(=O)ccn3N12` (single isomer, unassigned) [Compound 80A, 1-(3-fluoro-2-methylphenyl)-7-hydroxy-5-methyl-2-(2,2,2-trifluoroethyl)-1,2,3,4,4a,5-hexahydrodipyrido[1,2-b:2′,1′-f][1,2,4]triazine-6,8-dione] was 59.6 nM.
Turning to `CCCC1CCC2C(n3ccc(=O)c(O)c3C(=O)N2C)C1(O)c1ccccc1` (single isomer, unassigned) [Compound 166A, 1,7-dihydroxy-5-methyl-1-phenyl-2-propyl-1,3,4,4a,5,11a-hexahydro-2H-pyrido[1,2-a]quinoxaline-6,8-dione], the concentration for a half-maximal effect (EC50) (MDCK, 48 h) is > 8100 nM.
Consider `CN1C(=O)c2c(O)c(=O)ccn2N2[C@H](c3ccccc3)[C@H](OCC3(C#N)CCC3)CC[C@@H]12` [Compound 159, 1-((((1R,2R,4aS)-7-hydroxy-5-methyl-6,8-dioxo-1-phenyl-1,2,3,4,4a,5,6,8-octahydrodipyrido[1,2-b:2′,1′-f][1,2,4]triazin-2-yl)oxy)methyl)cyclobutane-1-carbonitrile], for which, where the note is “MDCK, 48 h”, it took 210 nM to reach a half-maximal effect (EC50).
Consider `Cc1ccccc1C1C(CCC(F)F)CCC2N(C)C(=O)c3c(O)c(=O)ccn3N12` (single isomer, unassigned) [Compound 103B, 2-(3,3-difluoropropyl)-7-hydroxy-5-methyl-1-(o-tolyl)-1,2,3,4,4a,5-hexahydrodipyrido[1,2-b:2′,1′-f][1,2,4]triazine-6,8-dione], for which the response was half-maximal at 5.3 nM (EC50).
The same measure, in the same setting: the figure for `CN1C(=O)c2c(O)c(=O)ccn2N2C(c3ccccc3)C(CC3CC3(F)F)CCC12` (single isomer, unassigned) [Compound 114D, 2-((2,2-difluorocyclopropyl)methyl)-7-hydroxy-5-methyl-1-phenyl-1,2,3,4,4a,5-hexahydrodipyrido[1,2-b:2′,1′-f][1,2,4]triazine-6,8-dione] is 2.3 nM; for `CN1C(=O)c2c(O)c(=O)ccn2N2C1CCC1(CCC(F)(F)C1)C2c1ccccc1` (single isomer, unassigned) [Compound 68D, 3,3-difluoro-7′-hydroxy-5′-methyl-1′-phenyl-3′,4′,4a′,5′-tetrahydro-1′H-spiro[cyclopentane-1,2′-dipyrido[1,2-b:2′,1′-f][1,2,4]triazine]-6′,8′-dione] it is 11.8 nM; for `CC1(c2cc(C(F)(F)F)ccn2)CCCC2N(CC3(C(F)(F)F)CC3)C(=O)c3c(O)c(=O)ccn3N21` (single isomer, unassigned) [Compound 52B, 7-hydroxy-1-methyl-5-((1-(trifluoromethyl)cyclopropyl)methyl)-1-(4-(trifluoromethyl)pyridin-2-yl)-1,2,3,4,4a,5-hexahydrodipyrido[1,2-b:2′,1′-f][1,2,4]triazine-6,8-dione] it is > 2700 nM.
Consider `CN1C(=O)c2c(O)c(=O)ccn2C2C1CCCC2(O)c1ccccc1` (single isomer, unassigned) [Compound 165B, 1,7-dihydroxy-5-methyl-1-phenyl-1,3,4,4a,5,11a-hexahydro-2H-pyrido[1,2-a]quinoxaline-6,8-dione], for which the EC50 was > 8100 nM.
On the same count and under the same terms, the figure for `CCCC1CCC2N(C)C(=O)c3c(O)c(=O)ccn3N2C1(C)c1ccccc1` (single isomer, unassigned) [Compound 33A, 7-hydroxy-1,5-dimethyl-1-phenyl-2-propyl-1,2,3,4,4a,5-hexahydrodipyrido[1,2-b:2′,1′-f][1,2,4]triazine-6,8-dione] is 49.5 nM.
Same read-out and setting: the figure for `CN1C(=O)c2c(O)c(=O)ccn2N2C(c3ccccc3)C3CCC(C3)C12` (single isomer, unassigned) [Compound 9C, 4-hydroxy-6-methyl-11-phenyl-6a,7,8,9,10,11-hexahydro-3H-7,10-methanopyrido[1′,2′:1,6][1,2,4]triazino[2,3-a]azepine-3,5(6H)-dione] is > 8100 nM; for `CN1C(=O)c2c(O)c(=O)ccn2N2C(c3cccc(F)c3)C(CC(F)(F)F)CCC12` (single isomer, unassigned) [Compound 121B, 1-(3-fluorophenyl)-7-hydroxy-5-methyl-2-(2,2,2-trifluoroethyl)-1,2,3,4,4a,5-hexahydrodipyrido[1,2-b:2′,1′-f][1,2,4]triazine-6,8-dione] it is 5.8 nM; for `CC1CC2N(C)C(=O)c3c(O)c(=O)ccn3N2C(C)(c2ccccc2)C1` (single isomer, unassigned) [Compound 43C, 7-hydroxy-1,3,5-trimethyl-1-phenyl-1,2,3,4,4a,5-hexahydrodipyrido[1,2-b:2′,1′-f][1,2,4]triazine-6,8-dione] it is 14.1 nM.
Same read-out and setting: the value for `CN1C(=O)c2c(O)c(=O)ccn2N2C(c3cc(F)ccc3C(F)(F)F)CCCC12` (single isomer, unassigned) [Compound 13B, 1-(5-fluoro-2-(trifluoromethyl)phenyl)-7-hydroxy-5-methyl-1,2,3,4,4a,5-hexahydro-dipyrido[1,2-b:2′,1′-f][1,2,4]triazine-6,8-dione] was 783 nM.
As to `CCN1C(=O)c2c(O)c(=O)cc(COC)n2N2C(c3ccccc3)C(CC(F)(F)F)CCC12` (stereo not drawn) [Compound 131B, 5-ethyl-7-hydroxy-10-(methoxymethyl)-1-phenyl-2-(2,2,2-trifluoroethyl)-1,2,3,4,4a,5-hexahydrodipyrido[1,2-b:2′,1′-f][1,2,4]triazine-6,8-dione], the EC50 was > 810 nM.
Turning to `CN1C(=O)c2c(O)c(=O)ccn2N2[C@H](c3ccccc3)[C@H](OCC3CCCC3)CC[C@@H]12` [Compound 158, (1R,2R,4aS)-2-(cyclopentylmethoxy)-7-hydroxy-5-methyl-1-phenyl-1,2,3,4,4a,5-hexahydrodipyrido[1,2-b:2′,1′-f][1,2,4]triazine-6,8-dione], the response (MDCK, 48 h) was half-maximal at 102 nM (EC50).
As to `CCN1C(=O)c2c(O)c(=O)ccn2N2C(c3ccccc3)C(CCC(F)F)CCC12` (single isomer, unassigned) [Compound 110B, 2-(3,3-difluoropropyl)-5-ethyl-7-hydroxy-1-phenyl-1,2,3,4,4a,5-hexahydrodipyrido[1,2-b:2′,1′-f][1,2,4]triazine-6,8-dione], a half-maximal response (EC50) required 5.5 nM.
On the same count and under the same terms, the value for `CN1C(=O)c2c(O)c(=O)ccn2N2C1CCC1(CCCC(F)(F)C1)C2c1ccccc1` (single isomer, unassigned) [Compound 75A, 3,3-difluoro-7′-hydroxy-5′-methyl-1′-phenyl-3′,4′,4a′,5′-tetrahydro-1′H-spiro[cyclohexane-1,2′-dipyrido[1,2-b:2′,1′-f][1,2,4]triazine]-6′,8′-dione] was > 810 nM.

These data come from US20240018145A1, “[…]-DEPENDENT EN[…] TREATING OR […]” (priority 2020, published 2024).
